Key:
Assay type in all cases: cell-based, human
[1] = test system: T2-cells (HLA-A*02-positive, TAP deficient); assay: 51Cr-release CTL-assay against peptide-pulsed T2-cells; conditions: CTL induced with SEQ ID No. 1 (FIG. 2a) or SEQ ID No. 2 (FIG. 2c); targets pulsed 50 μg/ml 2 hours
Procedure: For CTL induction, the DC obtained in step 2.1 (5×10^5) were pulsed with the peptides obtained in step 2.2 with SEQ ID No. 1 or SEQ ID No. 2, each with 50 μg/ml for 2 hours, washed and incubated with 2.5×10^6 autologous PBMNC in RP10 medium.
After 7 days of culture, cells were restimulated with autologous PBMNC pulsed with peptides. In doing so, 1 ng/ml human recombinant Interleukin IL-2 (R&D Systems) was added on days 1, 3 and 5. The cytolytic activity of thereby induced CTL was analyzed on day 5 after the last restimulation in a standard ^51Cr-release-assay (see below, under 2.4: CTL-assay).
In the CTL-assays, tumor cells, peptide-pulsed cells of different cell lines and autologous DC were used as target cells. Peptide-pulsed cells were pulsed with 50 μg/ml peptide (SEQ ID No. 1 or SEQ ID No. 2) for 2 hours. All target cells were labeled with [^51Cr] sodium chromate in RP10 (RPMI 1640, supplemented with 10% heat inactivated calf serum and antibiotics) for 1 hour at 37° C. Subsequently, 10^4 cells/well were transferred to a 96-well round bottomed plate. Varying numbers of CTL were added to give a final volume of 200 μl and incubated for 4 hours at 37° C. At the end of the assays, supernatants (50 μl/well) were harvested and counted in a beta-plate counter. […] The spontaneous and maximal release were determined in the presence of either medium or 2% Triton X-100, respectively. […]

[2] = test system: MeI 1479 (Malignant melanoma); assay: 51Cr-release CTL-assay against tumor cell line MeI 1479; conditions: cell line MEL 1479 / MeI 1479, FIG. 3c / 3f
Procedure: (§1) In the CTL-assays, tumor cells, peptide-pulsed cells of different cell lines and autologous DC were used as target cells. Peptide-pulsed cells were pulsed with 50 μg/ml peptide (SEQ ID No. 1 or SEQ ID No. 2) for 2 hours. All target cells were labeled with [^51Cr] sodium chromate in RP10 (RPMI 1640, supplemented with 10% heat inactivated calf serum and antibiotics) for 1 hour at 37° C. Subsequently, 10^4 cells/well were transferred to a 96-well round bottomed plate. Varying numbers of CTL were added to give a final volume of 200 μl and incubated for 4 hours at 37° C. At the end of the assays, supernatants (50 μl/well) were harvested and counted in a beta-plate counter. […] The spontaneous and maximal release were determined in the presence of either medium or 2% Triton X-100, respectively.
(§2) Next, it was tested, in a standard tumor ^51Cr-release-assays again, whether CTL specific for the c-Met-peptide with SEQ ID No. 1 or for adipophilin-peptide with SEQ ID No. 2 recognized and lysed tumor cells, which endogenously express the c-Met-protooncogene or adipophilin. […]

[3] = test system: MZ 1257 (renal cell carcinoma); assay: 51Cr-release CTL-assay against tumor cell line MZ 1257; conditions: cell line MZ 1257, FIG. 3c / 3f
Procedure: as §1, §2

51Cr-labeled A 498 = assay: Lysis-inhibition assay with cold peptide-pulsed T2 inhibitor cells, target A 498
Procedure: To further verify the antigen-specificity and the MHC-restriction of the in-vitro-induced CTL, inhibition assays with non-^51Cr-labeled (“cold”) inhibitor cell lines were performed.
In doing so, the ability of peptide-pulsed cell lines was analyzed to inhibit the lysis of tumor cells (competition assay). For this purpose, an excess of inhibitor (that is an excess of unlabeled pulsed cells) was used. The ratio of inhibitor (peptide-pulsed cells) to target (tumor cells) was 20:1. When inhibitor cell lines were lysed, no ^51Cr was released, since the inhibitor cell lines were unlabeled.
Cell line T2 (HLA-A*02; TAP-deficient; see under 2.5.a) was used as inhibitor. Previous to the assay, this cell line T2 was pulsed with the relevant peptides (SEQ ID NOS:1 or 2) or an irrelevant control peptide (Survivin (=Sv), SEQ ID NO:80), respectively.
In FIGS. 4a and 4b, lysis of the ^51Cr-labeled cell lines U 266 and A 498 was tested without inhibitor cell line (see the curve with black filled boxes); lysis with inhibitor cell line T2, pulsed with an irrelevant peptide (Survivin; SEQ ID NO:80; negative control, curves with the filled triangles); and lyses with the inhibitor cell line T2 pulsed with the c-Met-peptide with SEQ ID NO:1 (curves with the empty rhombus).
With these inhibition assays, the cells were incubated with 10 μg/ml antibody previous to seeding on the 96-well-plates for 30 min.

[4] = test system: SK-OV-3 (ovarian cancer; HLA-A*03-positive); assay: 51Cr-release CTL-assay against negative control cell line SK-OV-3; conditions: SK-OV-3 (HLA-A*02-negative)
Procedure: as §1
In the experiments CEBV (Epstein-Barr-virus)-immortalized B-cell line Croft, HLA-A*01-positive; obtained from O. J. Finn, Pittsburgh, USA) and cell line SK-OV-3 (ovarian cancer; HLA-A*03-positive; obtained from O. J. Finn, Pittsburgh, USA) were used as negative controls. K 562-cells (for example obtainable at the German Collection of Mikro Organisms and Cell Cultures DSMZ; ACC 10) were used to determine the activity of natural killer cells (NK) since the cell line is highly sensitive for these killer cells. […]

Sequence | lysis of T2-cells pulsed with the peptide [1] | lysis of tumor cells by CTL induced with the peptide [2] | lysis of tumor cells by CTL induced with the peptide [3] | inhibition of CTL-induced lysis of tumor cell line by T2 cells pulsed with the peptide (51Cr-labeled A 498; adipophilin-peptide-induced CTL, FIG. 4c) | lysis of control cell line by CTL induced with the peptide [4] | lysis of 51Cr-labeled tumor cells in presence of unlabeled T2 inhibitor cells pulsed with the peptide (51Cr-labeled A 498; c-Met-peptide-induced CTL, inhibitor:target 20:1, FIGS. 4a and 4b)
SVASTITGV (listed as Homo sapiens) [SEQ ID No. 2, HLA-A*02 ligand, adipose differentiation-related protein 129-137] | lysed | efficiently lyse | efficiently lyse | able to inhibit | no lysis | 
YVDPVITSI (listed as Homo sapiens) [SEQ ID No. 1, HLA-A*02 ligand, met proto-oncogen 654-662] | lysed | efficiently lyse | efficiently lyse |  | no lysis | not lysed

Reference: patent publication US8536304B2, “Tumour-associated peptides that bind to MHC molecules” (Immatics Biotechnologies GmbH, priority 2002, dated 2013)
